Measured values reported in paper PMC12175894 (Science Advances, 2025).
Residue numbers refer to the chain shown, from its start.

Legend:
[1] = molecular target: T1, 5-HT1AR Q97^2.65A (Homo sapiens, UniProt P08908, Q97A); experiment: Radioligand competition, displacement of [3H]WAY100635; type: binding; settings: 5-HT1AR Q97A; HEK 293T membranes; read-out: Ki [nM ± SEM]
T1 sequence (P08908 1-422 Q97A): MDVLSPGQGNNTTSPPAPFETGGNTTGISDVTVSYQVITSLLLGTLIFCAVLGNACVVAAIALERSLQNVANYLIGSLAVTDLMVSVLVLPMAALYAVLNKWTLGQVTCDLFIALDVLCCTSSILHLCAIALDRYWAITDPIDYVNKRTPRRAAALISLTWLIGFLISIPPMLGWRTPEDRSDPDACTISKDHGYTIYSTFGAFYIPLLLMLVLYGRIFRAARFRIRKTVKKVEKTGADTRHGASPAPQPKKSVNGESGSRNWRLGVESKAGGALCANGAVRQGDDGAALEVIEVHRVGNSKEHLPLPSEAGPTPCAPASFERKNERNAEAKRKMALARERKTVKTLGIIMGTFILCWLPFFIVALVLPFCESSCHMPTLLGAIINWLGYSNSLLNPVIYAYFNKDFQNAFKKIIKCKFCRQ

[2] = molecular target: T2, 5-HT1AR + Gαi2 (Homo sapiens, UniProt P08908); experiment: GloSensor cAMP in HEK293AΔGi/o co-transfected with Gαi2; type: cell-based
T2 construct: host or cells: HEK293AΔGi/o
T2 sequence (P08908 whole entry): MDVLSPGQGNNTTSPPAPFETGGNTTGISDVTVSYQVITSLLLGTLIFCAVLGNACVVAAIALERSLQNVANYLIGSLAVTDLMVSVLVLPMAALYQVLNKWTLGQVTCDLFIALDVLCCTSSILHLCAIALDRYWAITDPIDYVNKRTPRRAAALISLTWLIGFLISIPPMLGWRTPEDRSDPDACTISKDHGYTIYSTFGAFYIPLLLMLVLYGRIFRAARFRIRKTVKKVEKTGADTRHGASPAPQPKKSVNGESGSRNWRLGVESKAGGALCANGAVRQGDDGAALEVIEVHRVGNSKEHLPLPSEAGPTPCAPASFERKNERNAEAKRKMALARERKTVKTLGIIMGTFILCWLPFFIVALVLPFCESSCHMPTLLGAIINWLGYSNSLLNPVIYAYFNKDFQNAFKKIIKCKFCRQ
T2 sequence (P04899 2-355 partner limits assumed): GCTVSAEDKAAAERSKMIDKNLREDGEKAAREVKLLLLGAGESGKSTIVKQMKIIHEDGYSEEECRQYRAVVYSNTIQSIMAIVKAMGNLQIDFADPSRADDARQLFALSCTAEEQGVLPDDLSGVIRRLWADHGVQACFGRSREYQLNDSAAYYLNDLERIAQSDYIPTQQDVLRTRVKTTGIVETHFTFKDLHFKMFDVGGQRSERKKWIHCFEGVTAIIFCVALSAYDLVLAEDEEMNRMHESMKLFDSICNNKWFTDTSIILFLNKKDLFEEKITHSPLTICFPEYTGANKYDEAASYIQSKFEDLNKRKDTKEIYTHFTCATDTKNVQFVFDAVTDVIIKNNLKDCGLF

[3] = test system: mice; experiment: Elevated plus maze; type: in vivo, mouse
[4] = molecular target: T3, 5-HT1AR (Homo sapiens, UniProt P08908); experiment: cell-based
T3 sequence (P08908 1-422): T1 sequence (P08908 1-422 Q97A) with A97Q

[5] = molecular target: α2AR (Homo sapiens, UniProt P08913); experiment: BRET Gαi1 activation
Chain of α2AR (P08913 whole entry): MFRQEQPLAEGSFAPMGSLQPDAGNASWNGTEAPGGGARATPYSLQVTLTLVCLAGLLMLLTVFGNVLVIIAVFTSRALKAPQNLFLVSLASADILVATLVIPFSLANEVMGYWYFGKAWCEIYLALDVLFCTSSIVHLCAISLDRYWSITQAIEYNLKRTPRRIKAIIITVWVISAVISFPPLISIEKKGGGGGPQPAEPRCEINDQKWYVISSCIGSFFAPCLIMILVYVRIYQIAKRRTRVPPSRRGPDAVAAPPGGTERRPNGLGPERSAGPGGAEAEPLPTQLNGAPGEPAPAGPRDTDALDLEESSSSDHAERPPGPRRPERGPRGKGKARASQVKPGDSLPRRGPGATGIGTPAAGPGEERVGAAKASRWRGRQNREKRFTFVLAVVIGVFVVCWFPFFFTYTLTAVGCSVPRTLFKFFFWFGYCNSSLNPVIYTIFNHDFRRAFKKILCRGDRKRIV

[6] = molecular target: muscarinic M2 (Homo sapiens, UniProt P08172); experiment: Radioligand displacement, [3H]NMS
Chain of muscarinic M2 (P08172 whole entry): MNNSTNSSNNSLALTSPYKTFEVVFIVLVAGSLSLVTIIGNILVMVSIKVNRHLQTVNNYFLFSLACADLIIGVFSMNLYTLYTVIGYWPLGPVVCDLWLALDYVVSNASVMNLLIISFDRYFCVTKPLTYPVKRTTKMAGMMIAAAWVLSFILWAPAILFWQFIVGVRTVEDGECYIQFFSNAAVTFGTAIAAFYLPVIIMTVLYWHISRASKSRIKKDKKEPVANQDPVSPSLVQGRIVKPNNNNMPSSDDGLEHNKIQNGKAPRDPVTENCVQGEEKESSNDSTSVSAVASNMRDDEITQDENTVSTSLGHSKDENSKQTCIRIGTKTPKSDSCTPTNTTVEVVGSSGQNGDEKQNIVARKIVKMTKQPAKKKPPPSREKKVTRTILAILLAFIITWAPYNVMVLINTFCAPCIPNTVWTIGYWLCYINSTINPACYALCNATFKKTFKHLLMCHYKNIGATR

[7] = molecular target: dopamine D1 (Homo sapiens, UniProt P21728); experiment: Radioligand displacement, [3H]SCH23390
Chain of dopamine D1 (P21728 whole entry): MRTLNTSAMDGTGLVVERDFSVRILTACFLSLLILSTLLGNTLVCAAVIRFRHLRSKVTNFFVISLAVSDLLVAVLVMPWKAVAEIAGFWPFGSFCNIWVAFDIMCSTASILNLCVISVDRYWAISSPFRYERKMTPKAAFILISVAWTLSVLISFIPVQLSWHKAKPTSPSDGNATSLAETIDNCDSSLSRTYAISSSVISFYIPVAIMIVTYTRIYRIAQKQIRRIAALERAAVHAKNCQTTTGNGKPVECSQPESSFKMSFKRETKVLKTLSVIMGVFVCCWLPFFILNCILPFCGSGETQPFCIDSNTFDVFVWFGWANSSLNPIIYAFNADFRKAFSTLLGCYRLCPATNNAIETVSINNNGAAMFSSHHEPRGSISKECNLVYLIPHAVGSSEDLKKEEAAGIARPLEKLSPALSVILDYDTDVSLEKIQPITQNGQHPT

[8] = molecular target: adrenergic α2A (Homo sapiens, UniProt P08913); experiment: Radioligand displacement, [3H]RX821002
Chain of adrenergic α2A (P08913 whole entry): as the sequence (P08913 whole entry) above

[9] = molecular target: neurotensin NTS1 (Homo sapiens, UniProt P30989); experiment: Radioligand displacement, [3H]NT(8-13)
Chain of neurotensin NTS1 (P30989 whole entry): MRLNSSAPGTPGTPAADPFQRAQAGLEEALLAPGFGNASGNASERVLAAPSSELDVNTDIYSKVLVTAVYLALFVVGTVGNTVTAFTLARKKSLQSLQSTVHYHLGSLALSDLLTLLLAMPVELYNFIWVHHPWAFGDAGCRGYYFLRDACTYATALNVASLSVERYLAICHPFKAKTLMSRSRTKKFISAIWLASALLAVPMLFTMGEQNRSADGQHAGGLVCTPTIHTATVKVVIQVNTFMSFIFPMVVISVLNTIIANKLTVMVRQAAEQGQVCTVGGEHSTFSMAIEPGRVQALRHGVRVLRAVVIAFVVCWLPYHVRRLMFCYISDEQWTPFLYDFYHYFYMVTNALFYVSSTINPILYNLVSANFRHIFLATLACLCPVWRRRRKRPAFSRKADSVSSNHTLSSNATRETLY

[10] = molecular target: T3, 5-HT1AR; type: cell-based; set-up: host or cells: HEK293T, HEK293A, HEK293AΔGs, HEK293AΔGi/o, HEK293AΔARRB1/B2; settings: HEK293AΔGi/o, GloSensor
[11] = molecular target: T4, 5-HT1AR wildtype (Homo sapiens, UniProt P08908); experiment: GloSensor cAMP accumulation in HEK293AΔGi/o; type: cell-based; settings: read-out: Emax [% ± SEM], cAMP accumulation
T4 construct: host or cells: HEK293T, HEK293A, HEK293AΔGs, HEK293AΔGi/o, HEK293AΔARRB1/B2
T4 sequence (P08908 1-422): T1 sequence (P08908 1-422 Q97A) with A97Q

SMILES | Ki [1] [nM] | Emax [2] [%] | EC50 ([2]; HEK293AΔGi/o + Gαi2, read-out: EC50 [nM ± SEM], inhibition of cAMP accumulation) [nM] | time in center and open arms, plus maze ([3]; 1 or 5 mg/kg, 30 min before test) | anxiolytic effect, plus maze ([3]; analgesic dose (10 mg/kg)) | EC50 [4] [nM] | intrinsic activity [5] | Ki ([6]; Ki [nM ± SD]) [nM] | Ki ([6]; pKi) [nM] | Ki ([7]; Ki [nM ± SD]) [nM] | Ki ([7]; pKi) [nM] | Ki ([8]; Ki [nM ± SD]) [nM] | Ki ([8]; pKi) [nM] | Ki ([9]; Ki [nM ± SD]) [nM] | Ki ([9]; pKi) [nM] | IC50 [10] [nM] | Emax [11] [%]
COc1ccccc1OCCNCCCOc1ccc2c(c1)NC(=O)CO2 [ST171] | 63 | 57 ± 7 | 4.4 ± 1 | spent more time in the center | anxiolytic effects of the drug disappeared | 1.6 | devoid of intrinsic activity | 18000 ± 9200 | 16300 | 260 ± 170 | 209 | 260 | 204 | > 50000 | > 50100 | 3.9 ± 0.8 | 
Cc1ccc(CNCC2(F)CCN(C(=O)c3ccc(F)c(Cl)c3)CC2)nc1 [befiradol, reference compound] |  |  |  |  |  |  |  |  |  |  |  |  |  |  |  |  | 74 ± 3
